In patent publication US8476064B2, “Inhibition assay method and device for detection of antibiotics” (Charm Sciences, Inc., priority 2006, dated 2013):

Assays:
[1] = tested on: B.st. spores; test: Antibiotic detection test in spiked milk, Trizma/succinate culture of Example 7 (Table 5); assay type: cell-based, Bacillus (Geobacillus) Stearothermophilus; conditions: for 16 hr Result / % Pos (16 hr Result): 16 hours later; for % Pos (Result) / Result: immediately after test completion
Protocol: A Trizma/Succinate solution was prepared by adding 2.5 grams Trizma Base and 6 grams Succinate to 100 mL of reverse osmosis/deionized water (RO/DI Water) in a 125 mL flask. 40 milligrams of BCP (see example 1 for BCP preparation) was then added to a 50 mL conical tube and 25 mL of the Trizma/Succinate solution was added to the 40 milligrams BCP and mixed.
The media was prepared by dissolving 5 grams glucose and 1 gram Mueller Hinton Broth in 100 mL RO/DI Water. 1.2 mL of a 0.01 mg/mL solution of trimethoprim in RO/DI water was added to the media. 20 mL of the BCP/Trizma/Succinate preparation was added to the media and the media was sterile filtered through a 0.45 micron filter and cooled to 4 degrees C.
0.3 grams Difco Bacto-Agar (Item #0140-01), 0.225 NaCl and 17 mL of RO/DI water was combined and mixed and heated the mixture to 95° C. The mixture was removed from the heat and allowed it to cool to 75° C. and then 6 mL media (with BCP/Tris) was added and mixed for 5 minutes. The mixture was cooled to 57° C. and 2 mL spore (concentration of 1 billion cfu/mL) was added and mixed for 5 minutes. 0.200 mL was dispensed into the bottom of each vial.
In test operation 200 microliters of various milk samples, spiked with known concentrations of antibiotics, were pipetted into vials and incubated for the prescribed time (in this test 2 hours 30 minutes) and prescribed temperature (64 degrees C.+/−2 degrees C.). Results were recorded immediately after test completion and 16 hours later. Incubation was in various Charm Inctronic I incubators. Concentrations listed are in parts per billion (ppb). 4 samples were run at each concentration except 16 negative samples were run and 2 samples each for 3 ppb pen G and amoxicillin. Abbreviations are pencillin G (PenG); sulfamethazine (SMZ); sulfadimethoxine (SDM); tylosin (TY); gentamicin (G); oxytetracycline (OT); pirlimycin (Pirl); amoxicillin (Amox); ampicillin (Amp); cloxacillin (Clox); ceftiofur sodium (Ceft); cephaprin (Ceph); tilmicosin (Til); sulfadoxine (SDN); neomycin (Neo).

[2] = tested on: B.st. spores; test: Single service kidney swab microbial growth inhibition test, culture of Example 1, with or without beta-lactam receptor; assay type: cell-based, Bacillus (Geobacillus) Stearothermophilus; conditions: 12.5 ppb penicillin G; Receptor added dried on swab; also: key: positive (+); negative (−)

COc1cc(NS(=O)(=O)c2ccc(N)cc2)nc(OC)n1 [SDM, sulfadimethoxine]
16 hr Result ([1]; milk spiked at 25 ppb): Pos
% Pos (16 hr Result) ([1]; milk spiked at 25 ppb): 100%
% Pos (Result) ([1]; milk spiked at 25 ppb): 100%
Result ([1]; milk spiked at 25 ppb): Pos
16 hr Result ([1]; milk spiked at 50 ppb): Pos
% Pos (16 hr Result) ([1]; milk spiked at 50 ppb): 100%
% Pos (Result) ([1]; milk spiked at 50 ppb): 100%
Result ([1]; milk spiked at 50 ppb): Pos

CC1(C)S[C@@H]2[C@H](NC(=O)Cc3ccccc3)C(=O)N2[C@H]1C(=O)O [PenG, penicillin G]
16 hr Result ([1]; milk spiked at 3 ppb): Pos
% Pos (16 hr Result) ([1]; milk spiked at 3 ppb): 100%
% Pos (Result) ([1]; milk spiked at 3 ppb): 100%
Result ([1]; milk spiked at 3 ppb): Pos
16 hr Result ([1]; milk spiked at 4 ppb): Pos
% Pos (16 hr Result) ([1]; milk spiked at 4 ppb): 100%
% Pos (Result) ([1]; milk spiked at 4 ppb): 100%
Result ([1]; milk spiked at 4 ppb): Pos
test result [2]: −

CC[C@H]1OC(=O)C[C@@H](O)[C@H](C)[C@@H](O[C@@H]2O[C@H](C)[C@@H](O[C@H]3C[C@@](C)(O)[C@@H](O)[C@H](C)O3)[C@H](N(C)C)[C@H]2O)[C@@H](CC=O)C[C@@H](C)C(=O)/C=C/C(C)=C/[C@@H]1CO[C@@H]1O[C@H](C)[C@@H](O)[C@@H](OC)[C@H]1OC [TY, tylosin]
16 hr Result ([1]; milk spiked at 40 ppb): Pos
% Pos (16 hr Result) ([1]; milk spiked at 40 ppb): 100%
% Pos (Result) ([1]; milk spiked at 40 ppb): 100%
Result ([1]; milk spiked at 40 ppb): Pos
16 hr Result ([1]; milk spiked at 50 ppb): Pos
% Pos (16 hr Result) ([1]; milk spiked at 50 ppb): 100%
% Pos (Result) ([1]; milk spiked at 50 ppb): 100%
Result ([1]; milk spiked at 50 ppb): Pos

gentamicin
16 hr Result ([1]; milk spiked at 300 ppb): Pos
% Pos (16 hr Result) ([1]; milk spiked at 300 ppb): 100%
% Pos (Result) ([1]; milk spiked at 300 ppb): 100%
Result ([1]; milk spiked at 300 ppb): Pos
16 hr Result ([1]; milk spiked at 400 ppb): Pos
% Pos (16 hr Result) ([1]; milk spiked at 400 ppb): 100%
% Pos (Result) ([1]; milk spiked at 400 ppb): 100%
Result ([1]; milk spiked at 400 ppb): Pos

CN(C)[C@@H]1C(O)=C(C(N)=O)C(=O)[C@@]2(O)C(O)=C3C(=O)c4c(O)cccc4[C@@](C)(O)[C@H]3[C@H](O)[C@@H]12 [OT, oxytetracycline]
% Pos (16 hr Result) ([1]; milk spiked at 200 ppb): 0%
% Pos (Result) ([1]; milk spiked at 200 ppb): 0%
% Pos (16 hr Result) ([1]; milk spiked at 300 ppb): 100%
% Pos (Result) ([1]; milk spiked at 300 ppb): 100%

Cc1cc(C)nc(NS(=O)(=O)c2ccc(N)cc2)n1 [SMZ, sulfamethazine]
16 hr Result ([1]; milk spiked at 100 ppb): Pos
% Pos (16 hr Result) ([1]; milk spiked at 100 ppb): 100%
% Pos (Result) ([1]; milk spiked at 100 ppb): 100%
Result ([1]; milk spiked at 100 ppb): Pos
16 hr Result ([1]; milk spiked at 200 ppb): Pos
% Pos (16 hr Result) ([1]; milk spiked at 200 ppb): 100%
% Pos (Result) ([1]; milk spiked at 200 ppb): 100%
Result ([1]; milk spiked at 200 ppb): Pos
